Columns and labels:
Experiment in all cases: relative viability (nuclei count vs DMSO), 5 days (fraction); higher = more cells survive
YM155 + Dasatinib = compound: COCC[n+]1c2c(n(Cc3cnccn3)c1C)C(=O)c1ccccc1C2=O [YM155] + Cc1nc(Nc2ncc(C(=O)Nc3c(C)cccc3Cl)s2)cc(N2CCN(CCO)CC2)n1 [Dasatinib] (partner 0.075 µM)
In short: (§1)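 A single step with final 0.05% Triton X-100, 1% formaldehyde and 1 ug/ml Hoechst fixed the cells and stained nuclei 5 days after treatment. Lung cancer cell lines in 1536-well plates had been treated by pin tool the day after seeding with one drug alone or a fixed anchor-drug dose plus five library-drug doses (not always all listed) in √10 steps, and nuclei were counted on 4× images. Relative viability is the ratio of nuclei in treated wells to nuclei in vehicle wells, taken as the median of duplicate plates.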

YM155 + Luminespib = compound: COCC[n+]1c2c(n(Cc3cnccn3)c1C)C(=O)c1ccccc1C2=O [YM155] + CCNC(=O)c1noc(-c2cc(C(C)C)c(O)cc2O)c1-c1ccc(CN2CCOCC2)cc1 [Luminespib] (partner 0.01 µM)
In short: as §1

YM155 + Navitoclax = compound: COCC[n+]1c2c(n(Cc3cnccn3)c1C)C(=O)c1ccccc1C2=O [YM155] + CC1(C)CCC(c2ccc(Cl)cc2)=C(CN2CCN(c3ccc(C(=O)NS(=O)(=O)c4ccc(N[C@H](CCN5CCOCC5)CSc5ccccc5)c(S(=O)(=O)C(F)(F)F)c4)cc3)CC2)C1 [Navitoclax] (partner 0.5 µM)
In short: as §1

Quizartinib + Crizotinib = compound: CC(C)(C)c1cc(NC(=O)Nc2ccc(-c3cn4c(n3)sc3cc(OCCN5CCOCC5)ccc34)cc2)no1 [Quizartinib] + C[C@@H](Oc1cc(-c2cnn(C3CCNCC3)c2)cnc1N)c1c(Cl)ccc(F)c1Cl [Crizotinib] (partner 1 µM)
In short: as §1

Cell Line	relative viability (YM155 + Dasatinib; first compound 0.002 µM)	relative viability (YM155 + Dasatinib; first compound 0.006325 µM)	relative viability (YM155 + Dasatinib; first compound 0.02 µM)	relative viability (YM155 + Dasatinib; first compound 0.06325 µM)	relative viability (YM155 + Luminespib; first compound 0.002 µM)	relative viability (YM155 + Luminespib; first compound 0.006325 µM)	relative viability (YM155 + Luminespib; first compound 0.02 µM)	relative viability (YM155 + Luminespib; first compound 0.06325 µM)	relative viability (YM155 + Navitoclax; first compound 0.002 µM)	relative viability (YM155 + Navitoclax; first compound 0.006325 µM)	relative viability (YM155 + Navitoclax; first compound 0.02 µM)	relative viability (YM155 + Navitoclax; first compound 0.06325 µM)	relative viability (Quizartinib + Crizotinib; first compound 0.001 µM)	relative viability (Quizartinib + Crizotinib; first compound 0.003162 µM)	relative viability (Quizartinib + Crizotinib; first compound 0.01 µM)	relative viability (Quizartinib + Crizotinib; first compound 0.03162 µM)	relative viability (Quizartinib + Crizotinib; first compound 0.1 µM)
201T	0.562	0.616	0.558	0.609	1.05	1.06	1.04	1.09	1.26	1.18	1.17	1.23	1	1	1.03	1.02	1.05
A549									1.28	1.24	1.11	0.14	0.703	0.691	0.879	0.457	0.686
A-427	0.688	0.734	0.839	0.818	0.895	0.965	0.85	0.441	0.984	0.88	0.91	0.997	0.808	0.926	0.941	0.813	0.638
ABC-1	0.48	0.374	0.197	0.26	0.439	0.386	0.169	0.256					0.922	0.799	1.22	0.527	1.3
BEN	0.331	0.269	0.36	0.348	0.33	0.728	0.617	0.417	0.0838	0.0769	0.0788	0.0609	0.819	0.769	0.766	0.722	0.73
CAL-12T	0.255	0.615	0.602	0.393	0.362	0.766	0.414	0.183	1.22	1.16	1.16	0.299	0.652	0.662	0.724	0.202	0.696
COR-L23	0.503	0.463	0.367	0.221	0.562	0.378	0.16	0.115	0.905	0.877	0.505	0.123	0.573	0.538	0.753	0.51	0.67
COR-L 105	0.284	0.333	0.312	0.283	0.813	0.641	0.57	0.529	0.672	0.892	0.783	0.501	0.788	0.734	0.669	0.49	0.902
Calu-6									0.849	0.589	0.191	0.112	0.719	0.714	0.814	0.621	0.752
ChaGo-K-1	0.463	0.503	0.582	0.629	0.651	0.509	0.715	0.714	1.14	0.928	0.785	0.93	1.1	1.06	1.23		1.19
EBC-1									0.428	0.404	0.458	0.389	0.197	0.173	0.211	0.207	0.211
EKVX	0.647	0.539	0.491	0.62	0.847	0.855	0.888	0.724	0.854	0.989	1.01	0.704	0.867	0.683	0.779	0.994	1.09
EMC-BAC-2	0.327	0.355	0.325	0.338	1.19	1.11	1.12	0.982	1.12	1.24	1.09	1.13	0.753	0.713	0.873	0.758	0.738
EPLC-272H	0.358	0.371	0.396	0.365	0.378	0.327	0.186	0.24	1.14	1.11	1.13	1.18	0.826	0.828	0.739	0.845	1.01
H3255	0.379	0.339	0.534	0.405	0.752	0.949	0.948	1.02	0.491	0.523	0.487	0.525	0.736	0.86	1	0.834	0.868
HARA	0.161	0.278	0.298	0.292	0.683	0.906	0.95	0.686	1.11	1.14	1.13	1.14	0.87	0.97	1.17	1.08	1.09
HCC-15	0.663	0.56	0.593	0.507	0.361	0.369	0.311	0.161	0.66	0.673	0.72	0.706	0.798	0.79	0.817	0.802	0.81
HCC-44					1.04	1.05	0.92	0.219	0.983	1.04	0.988	0.914	0.66	0.817	0.927	0.765	0.682
HCC-78	0.313	0.487	0.477	0.47					0.79	0.717	0.767	0.942	0.315	0.345	0.376	0.319	0.391
HCC-366	0.578	0.653	0.685	0.581					1.08	1.04	0.989	0.843	0.405	0.411	0.689	0.517	0.467
HCC-827	0.337	0.262	0.308	0.345	0.662	0.451	0.403	0.586	1.03	1.11	1.01	0.992	0.934	0.877	0.961	0.934	0.879

Reference: the supplement of paper PMC10307832
